Data set [1] can be described thus: Pilot pharmacokinetics after intravenous and intraperitoneal injection. Type of data set: in vivo, hamster. The settings on record: hamsters, pilot study. As to the method: (§1) The cyclic integrin αv antagonist EMD121974 (cyclic Arg-Gly-Asp-D-Phe(N-methyl)Val) ([Dechantsreiter et al, 1999]) and the control peptide EMD135981 (cyclic Arg-β-Ala-Asp-D-Phe(N-methyl)Val) were synthesised and characterised at Merck KgAa (Darmstadt, Germany). In pilot studies pharmacokinetics of the peptides were compared after intravenous and intraperitoneal injection in hamsters. […] Therefore, we chose the following set-up for administration: Peptides were dissolved in PBS (10 mg ml^−1). One day after implantation of tumour cells, animals were randomly assigned to two groups (n=6) and RGD-peptide EMD121974 or control-peptide EMD135981 were given i.p. every 12 h (30 mg kg^−1 b.w.) until the end of the experiments.

Data set [2] deals with amelanotic hamster melanoma A-Mel-3. Put plainly: Tumour growth (tumour area) in the dorsal skinfold chamber by video macroscopy. Type of data set: in vivo, Syrian Golden hamster. Conditions: 30 mg kg^−1 i.p. every 12 h; for Tumour area: n=6, mean±s.e.m. As to the method: (§2) For quantification of tumour angiogenesis, a dorsal skinfold chamber preparation consisting of two symmetrical titanium frames was surgically implanted into the dorsal skin as described earlier in detail ([Asaishi et al, 1981]; [Endrich et al, 1982]). This is considered to cause the least distress upon the animal because the dorsal skin is extremely expansible. Following implantation of the transparent chamber and a recovery period of 48 h from anaesthesia and microsurgery, preparations fulfilling the criteria of an intact microcirculation were implanted with 2×10^5 cells of the amelanotic melanoma of the hamster A-Mel-3 ([Fortner et al, 1961]). Fine polyethylene catheters (PE10, inner diameter 0.28 mm) were permanently inserted into the right jugular vein 48 h before first measurement to allow injection of fluorescent agents for intravital fluorescence microscopy.
(§3) Quantification of tumour angiogenesis using intravital fluorescence microscopy have been described in detail elsewhere ([Asaishi et al, 1981]; [Dellian et al, 1995], [1996]). In brief, the awake animal was trained to crawl into a transparent plastic tube and was placed on a custom-made stage under a modified Leitz microscope (Orthoplan; Leitz, Munich, Germany). FITC-labelled dextran (Sigma, Deisenhofen, Germany; MW 500000; 0.05–0.1 ml of a 5% solution in 0.9% NaCl) as a plasma marker and rhodamine 6G (Molecular Probes, Eugene, OR, USA; 0.04 ml of a 0.05% solution in 0.9% NaCl) to label white blood cells in vivo, were injected i.v. to visualise microcirculation and leucocyte–endothelium interaction, respectively. […] Selective observation of FITC-labelled plasma was possible using epi-illumination with a 100 W mercury lamp attached to a Ploemopack illuminator with a Leitz I2/3 filter block (excitation 450–490 nm, emission ⩽515 nm) and rhodamine 6G-stained leucocytes were visualised using a Leitz N2 filter block (excitation 530–560 nm, emission ⩽580 nm). Intravital microscopy was performed 3, 5, 9 and 13 days after implantation of the tumour cells. At least 3–5 sites of interest per animal were randomly selected in centre and periphery of the tumour. Images were acquired by a SIT video camera (C2400-08; Hamamatsu Herrsching, Germany) and recorded on S-VHS video tape (Sony) for subsequent analysis. Parallel to microvascular observations the area covered by tumour in the chamber preparation was registered on videotape using a Leitz macroscope with video camera (XC-77; Sony) to evaluate tumour growth. The tumour area (mm^2) was quantified from videotape by digital image analysis.
as §1

A further data set relates to subcutaneous A-Mel-3. Description: Growth and lymph node metastasis of subcutaneous A-Mel-3 tumours. Type of data set: in vivo, Syrian Golden hamster. The settings on record: for Subcutaneous tumour volume / growth pattern: calliper measurement every other day from day 5, 30 mg kg^−1 i.p. every 12 h. As to the method: Male Syrian Golden Hamsters (weight, age and housing as described above) were anaesthetised with pentobarbital and the dorsal skin was shaven and chemically depilated (Pilcamed, Schwarzkopf, Germany). Cells (4 to 6×10^6) of the A-Mel-3 were suspended in a 10 μl volume and injected s.c. over the lumbosacral region of the dorsal skin. This is considered to cause the least distress upon the animal because the dorsal skin is extremely expansible. Starting on day 5 after tumour cell implantation, the longer (l) and shorter (w) perpendicular axes and the height (h) of each tumour nodule were measured with callipers every other day. Metastases of the animals were determined by palpation of axillar and inguinal lymph nodes. The day when metastases were first palpable the animal was defined as metastasised. To minimise the pain and distress of the animals no biopsies were taken from the lymph nodes during the observation time. This was due to the known fact that the axillar or inguinal lymph nodes were the most frequent sites of metastasis formation ([Fortner et al, 1961]; [Weiss et al, 1990]). After the end of the experiments when animals were euthanised, biopsies were taken to confirm histologically the invasion of the lymph nodes. Tumour volume was calculated according to the formula Vt=0.837×l×w×h ([Weiss et al, 1990]).
as §1
Results are presented as mean±s.e.m. Data were evaluated using Wilcoxon–Mann–Whitney U and Kruskal–Wallis test, respectively (SigmaStat; Jandel Scientific, San Rafael, CA, USA). Metastasis analysis was performed according to the Kaplan–Meier method ([Kaplan and Meier, 1958]) and the differences were compared for statistical significance using the Cox-F test ([Lee, 1975], [1980]) with the statistical software program Statistica (StatSoft, Inc, 1997, Tulsa, OK, USA). P values smaller than 5% were considered to be significant.

Data set [3] can be described thus: Tolerability during treatment (side effects, body weight, behaviour). The settings on record: 30 mg kg^−1 i.p. twice a day. Format: in vivo, Syrian Golden hamster. As to the method: Experiments were performed with male Syrian Golden Hamsters (6–8 weeks old, 50–60 g body weight (bw)) in accordance with institutional guidelines after approval of the animal committee of the Bavarian state. The animals were housed one per cage and had free access to tap water and standard laboratory food throughout the experiments. Animals were inspected at least two times a day by specialised animal colony staff to assure a normal clinical condition (including appearance, posture, behaviour and physiological responses). Particular attention was given to body weight and any signs of discomfort, ulceration or inflammation. All surgical procedures were performed under pentobarbital anaesthesia (50 mg kg^−1 b.w., i.p.; Nembutal, Sanofia-Leva, Hannover, Germany). The experiments met all the standards required by the UKCCCR guidelines for the welfare of animals in experimental neoplasia (United Kingdom Co-ordinating Committee on Cancer Research ([UKCCCR), 1998]).
(§4) The cyclic integrin αv antagonist EMD121974 (cyclic Arg-Gly-Asp-D-Phe(N-methyl)Val) ([Dechantsreiter et al, 1999]) and the control peptide EMD135981 (cyclic Arg-β-Ala-Asp-D-Phe(N-methyl)Val) were synthesised and characterised at Merck KgAa (Darmstadt, Germany). In pilot studies pharmacokinetics of the peptides were compared after intravenous and intraperitoneal injection in hamsters. […]

The test system of data set [4] is amelanotic hamster melanoma A-Mel-3. Put plainly: Intravital fluorescence microscopy of tumour angiogenesis and microcirculation in the dorsal skinfold chamber. Conditions: for Appearance of tumour vasculature: 3 days after tumour cell implantation, FITC-Dextran plasma marker; for Functional vessel density (FVD): 30 mg kg^−1 b.w. i.p. every 12 h from day 1, n=6, mean±s.e.m.; for Leucocyte–endothelium interaction in tumour microvessels: rhodamine 6G-stained leucocytes. Format: in vivo, Syrian Golden hamster. As to the method: as §2, §3
Analysis of microcirculatory parameters was performed off-line from video tape by an image analysis system (Cap Image; Zeintl, Heidelberg, Germany). This system described in detail by [Zeintl et al (1989)] and [Klyscz et al (1997)] allows measurement of functional vessel density (FVD) as a parameter of angiogenic activity ([Dellian et al, 1996]). FVD is defined as the total length of perfused microvessels per unit area of observation and is given in cm^−1. Red blood cell velocity (vRBC) was quantified with the line shift diagram method according to [Klyscz et al (1997)] in mm s^−1. Rolling leucocytes were defined as population of cells temporarily interacting with the vessel wall and thus having a velocity at least 50% below vRBC in the same vessel. Adherent leucocytes were given as the number of leucocytes remaining stationary for at least 30 s per square millimetre of vessel wall surface ([Atherton and Born, 1972]; [Dellian et al, 1996]).
as §4

[5] abbreviates: day 13 after tumour implantation.

Each structure is given as a SMILES string. Non-standard residues stand in square brackets, D forms with d. Residues, ends and D or L forms follow the SMILES beside them. NMeV = CN[C@H](C(=O)O)C(C)C; βAla = NCCC(=O)O

Usually half-life stands for how long it takes for the measured level to halve.

For the molecule `CC(C)[C@H]1C(=O)N[C@@H](CCCNC(=N)N)C(=O)NCC(=O)N[C@@H](CC(=O)O)C(=O)N[C@H](Cc2ccccc2)C(=O)N1C` [EMD121974, cyclic Arg-Gly-Asp-D-Phe(N-methyl)Val], in data set [1] (Syrian Golden, hamster, plasma, ip, after intraperitoneal injection, read-out: Plasma half-life time), the half-life is 47 min. In data set [1], the “Area under the curve, intraperitoneal versus intravenous administration” value is “similar”. Further, the Tumour area in data set [2] (day 9) was 20.5±1.4 mm^2; in data set [2] (day 13) it was 49.1±4.8 mm^2. Further, the “Tumour area versus controls” value in data set [2] (days 3 and 5) is on record as “slightly smaller than controls”. Also, the “Subcutaneous tumour volume / growth pattern” value with subcutaneous A-Mel-3 is “significantly smaller in comparison to controls on days 7 until 15”. For the same molecule, in the data set with subcutaneous A-Mel-3 (pilot study), the “Effect on tumour growth of 30 mg kg^−1 every 12 h compared to 30 mg every 2 days” value was “slightly higher effect on tumour growth”. Also, the “Side effects in treated animals” value in data set [3] is “no side effects were observed”. The Body weight entry in data set [3] (control and treated animals) is “increased similar in control and treated animals”. The “Appearance of tumour vasculature” value in data set [4] is on record as “only individual sprouts as signs of early angiogenesis were visible”. The figures for the “Functional vessel density (FVD)” value in data set [4] (day 3 after tumour cell implantation) and in data set [4] (setting [5]) were 32.7 ± 12.1 cm⁻¹ and 156.9 ± 15.6 cm⁻¹, respectively. In addition, in data set [4] (days 9 and 13, 30 mg kg^−1 i.p. every 12 h), the “Red blood cell velocity (vRBC) versus control peptide” value is “slightly lower”. For the same molecule, the “Vessel diameters, RGD peptide versus control peptide” value in data set [4] (intravital microscopy, 30 mg kg^−1 i.p. every 12 h) is “no differences”. For the same molecule, the “Leucocyte–endothelium interaction in tumour microvessels” value in data set [4] (30 mg kg^−1 i.p. every 12 h) was “almost absent”.

In the case of `CC(C)[C@H]1C(=O)N[C@@H](CCCNC(=N)N)C(=O)NCCC(=O)N[C@@H](CC(=O)O)C(=O)N[C@H](Cc2ccccc2)C(=O)N1C` [EMD135981, cyclic Arg-β-Ala-Asp-D-Phe(N-methyl)Val, reference compound] (cyclo(D[dF][NMeV]R[βAla])), the Tumour area in data set [2] (day 9) worked out at 28.1±3.2 mm^2; in data set [2] (day 13), 80.94±6.1 mm^2. For the same molecule, the “Subcutaneous tumour volume / growth pattern” value with subcutaneous A-Mel-3 is listed as “nearly exponential growth”. Also, the “Day lymph node metastasis first palpable” value in the data set with subcutaneous A-Mel-3 (in two animals of the group, palpation) was 9 days. Further, the “Palpable lymph node metastasis on day 11” value in the data set with subcutaneous A-Mel-3 (two days after day 9, palpation of axillar and inguinal lymph nodes) was “palpable metastasis was found in all control animals”. For the same molecule, the “Appearance of tumour vasculature” value in data set [4] is listed as “dense, chaotic structured network”. The “Functional vessel density (FVD)” value in data set [4] (setting [5]) amounted to 108.2 ± 10.6 cm⁻¹. Also, the “Day on which FVD reached its maximum value” in data set [4] (measurements on days 3, 5, 9 and 13, 30 mg kg^−1 i.p. every 12 h) is 5 days. In data set [4] (30 mg kg^−1 i.p. every 12 h), the “Leucocyte–endothelium interaction in tumour microvessels” value is recorded as “almost absent”.
